Source: patent US8145430B2, “Predictive scoring function for estimating binding affinity” (Schrodinger, LLC, priority 2005, dated 2012)
Like-named read-outs stand apart in the source and are kept apart here.

Tests used:
Glur2 receptors = details: series of Glur2 receptors; cited from earlier work
[1] = system: protein-ligand complexes in the PDB; details: experimental binding affinity, cited from earlier work
aldose reductase = aldose reductase (Homo sapiens, UniProt P15121); details: lef3 structure of aldose reductase; cited from earlier work
Streptavidin = Streptavidin (Streptomyces avidinii, UniProt P22629); assay: Calculated versus experimental binding affinity, streptavidin and biotin (pdb 1stp), docked structure; details: using a docked structure
Excerpt: FIG. 8 illustrates Streptavidin in biotin (pdb 1stp). Both special hydrogen bonds in this complex, and hydrophobic enclosure of the hydrogen bonding region, are shown.
Here three correlated hydrogen bonds occur in a hydrophobically enclosed region. Up to the present time, no empirical scoring function has explained the exceptionally large binding affinity of streptavidin in biotin. Once the triple, enclosed hydrogen bonding motif is recognized and assigned an appropriate score, the deviation between calculated and experimental binding affinity, using a docked structure, is only 1.5 kcal/mole.

[2] = column beside SP Score (repeat)

Sequence of Streptavidin (P22629 25-183): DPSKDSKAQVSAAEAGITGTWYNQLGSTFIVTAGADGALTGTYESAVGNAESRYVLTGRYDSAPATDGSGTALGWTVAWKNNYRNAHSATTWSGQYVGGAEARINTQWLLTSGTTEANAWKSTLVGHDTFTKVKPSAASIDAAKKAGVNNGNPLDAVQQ

| SMILES | ΔG (experimental binding energies) (Glur2 receptors) [kcal/mol] | ΔG_exp [1, 2] [kcal/mol] | ΔG_exp ([1]; column beside XP Score) [kcal/mol] | binding affinity experimentally (aldose reductase) | deviation between calculated and experimental binding affinity (Streptavidin) [kcal/mol] |
| --- | --- | --- | --- | --- | --- |
| N[C@@H](Cn1cc(F)c(=O)[nH]c1=O)C(=O)O [Ligand 1mqi] | 11.9 |  |  |  |  |
| NCCCCc1ccccc1 [1tni] |  | -2.3 | -2.3 |  |  |
| NC(=O)[C@@H]1C[C@]2(NC(=O)NC2=O)c2cc(F)ccc2O1 [fiderestat] |  |  |  | low nanomolar |  |
| Cc1ccc(S(=O)(=O)N[C@@H](Cc2cccc(C(=N)N)c2)C(=O)N2CCCCC2)cc1 [1pph] |  | -8.5 | -8.5 |  |  |
| CC(=O)N[C@H](C(=O)N[C@@H](Cc1ccccc1)[C@@H](O)CN(CC1CCCCC1)NC(=O)[C@@H](NC(C)=O)C(C)C)C(C)C [1hih] |  | -11.3 | -11.3 |  |  |
| CC12CCC(CC1=O)C2(C)C (centres unmarked) [2cpp] |  | -8.3 | -8.3 |  |  |
| CC(C)c1ccc(NC(=O)[C@H](Cc2ccccc2)NC(=O)[C@H](CCCCN)NC(=O)C(F)(F)F)cc1 [1elc] |  | -9.8 | -9.8 |  |  |
| CC1(C)S[C@H]([C@H](NC(=O)Cc2ccccc2)C(=O)NCc2ccccc2)N[C@H]1C(=O)N[C@@H](CO)Cc1ccccc1 [1htf] |  | -11.1 | -11.1 |  |  |
| N[C@@H](CCC(=O)O)C(=O)O [Ligand 1ftj] | 8.5 |  |  |  |  |
| Cc1o[nH]c(=O)c1C[C@H](N)C(=O)O [Ligand 1ftm] | 8.8 |  |  |  |  |
| CN(Cc1cnc2nc(N)nc(N)c2n1)c1ccc(C(=O)N[C@@H](CCC(=O)O)C(=O)O)cc1 [4dfr] |  | -13.2 | -13.2 |  |  |
| O=C(N[C@H]1c2ccccc2C[C@H]1O)[C@H](Cc1ccccc1)CC(O)C[C@@H](Cc1ccccc1)C(=O)N[C@H]1c2ccccc2C[C@H]1O [4phv] |  | -12.5 | -12.5 |  |  |
| N=C(N)c1ccccc1 [1bra] |  | -2.5 | -2.5 |  |  |
| O=C(O)[C@H](O)[C@@H](O)[C@H](O)[C@H](O)COP(=O)(O)O [1pgp] |  | -7.8 | -7.8 |  |  |
| O=c1[nH]c2cc([N+](=O)[O-])c([N+](=O)[O-])cc2[nH]c1=O [Ligand 1ftl] | 8.3 |  |  |  |  |
| CNC(=O)C(F)(F)C(O)(O)[C@H](CC(C)C)NC(=O)[C@@H](NC(=O)[C@@H](NC(=O)CC(C)C)C(C)C)C(C)C [1apv] |  | -11.3 | -11.3 |  |  |
| CC(C)C[C@H](N)C(=O)NO [4tln] |  | -5.1 | -5.1 |  |  |
| NCC1CCCCC1 [1tng] |  | -4 | -4 |  |  |
| COC(=O)[C@H](Cc1ccccc1)OP(=O)(O)[C@H](CC(C)C)NC(=O)[C@@H](NC(=O)[C@@H](NC(=O)CC(C)C)C(C)C)C(C)C [1ppl] |  | -11.5 | -11.5 |  |  |
| Nc1c2c(nc3ccccc13)CCCC2 [1acj] |  | -10 | -10 |  |  |
| CC(C)C[C@H](N[C@@H](CCc1ccccc1)C(=O)O)C(=O)N[C@@H](Cc1c[nH]c2ccccc12)C(=O)O [1tmn] |  | -10 | -10 |  |  |
| O=C(O)[C@@H](O)Cc1ccccc1 [2ctc] |  | -5.3 | -5.3 |  |  |
| C[C@H]1O[C@H](O)[C@H](O)[C@@H](O)[C@H]1O [7abp] |  | -8.1 | -8.1 |  |  |
| O=C(O)CCCC[C@@H]1SC[C@@H]2NC(=O)N[C@@H]21 [biotin] |  |  |  |  | 1.5 |
| CC(=O)N[C@H]1[C@H]([C@H](O)[C@H](O)CO)OC(C(=O)O)=C[C@@H]1O [1nnb] |  | -7.2 | -7.2 |  |  |
